Molecules are shown by their SMILES.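 A five-concentration, 48-hour dose response in 96-well plates underlies each endpoint, interpolated linearly between surrounding concentrations. GI50 = concentration required for 50% inhibition of growth.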 The source made the active and inactive calls. No stated cut-off is given here; in the data, active = GI50 up to about 1.1 µM and inactive = higher. Where only a bound is given, the exact number is not on record here.

Some test systems named below: SF-295; CCRF-CEM; OVCAR-8; HCT-116; Hs-578T; RXF 393; NCI-H226; SK-MEL-2; M14; CAKI-1; SK-MEL-5; LOX IMVI; PC-3; A498; ACHN; SW-620; IGROV-1; SNB-75; NCI-H522; SN12C.
What all share (experiment): DTP human tumour cell line panel, 48 h

On to `O=C1C2CCCCC2C(=O)N1n1c(Cc2ccccc2)n[nH]c1=O` (stereo not given), for which the GI50 in the assay on SF-295, in the assay with CCRF-CEM, in the assay with OVCAR-8, in the assay on HCT-116, with Hs-578T and in the assay with RXF 393 was > 100 µM (inactive) each time. Further, the GI50 in the assay with NCI-H226, in the assay with SK-MEL-2, in the assay on M14, with CAKI-1, in the assay on SK-MEL-5 and in the assay on LOX IMVI was > 100 µM (inactive) in each case. Also, the GI50 in the assay with PC-3, in the assay with A498, in the assay with ACHN, in the assay on SW-620, with IGROV-1 and in the assay with SNB-75 was > 100 µM (inactive) throughout. The GI50 in the assay on NCI-H522 and with SN12C was > 100 µM (inactive) in each case.

As for `CCc1[nH]nc(C(N)=O)c1/N=N/N(C)C`, the GI50 was 39.7 µM (inactive) in the assay with SF-295; 28.2 µM (inactive) in the assay on CCRF-CEM; 73.1 µM (inactive) with OVCAR-8; 72.1 µM (inactive) with HCT-116; 67.9 µM (inactive) in the assay with Hs-578T; > 100 µM (inactive) in the assay on RXF 393. For the same compound, the GI50 in the assay on NCI-H226 is 84.1 µM (inactive); in the assay with SK-MEL-2 it was > 100 µM (inactive); with M14 it was > 100 µM (inactive); in the assay with CAKI-1 it was 24.8 µM (inactive); in the assay with SK-MEL-5 it was 70 µM (inactive); with LOX IMVI, 43.2 µM (inactive). Besides, the GI50 is > 100 µM (inactive) in the assay on PC-3; > 100 µM (inactive) in the assay on A498; 36.5 µM (inactive) in the assay on ACHN; > 100 µM (inactive) with SW-620; 34.8 µM (inactive) in the assay with IGROV-1; 65.9 µM (inactive) in the assay on SNB-75. Moreover, the GI50 is 37.3 µM (inactive) with NCI-H522 and 44 µM (inactive) in the assay on SN12C.

`O=C1Cc2c(-c3cccs3)cc(-c3ccccc3)nc2-c2ccccc2N1`: the GI50 in the assay on SF-295 is 47.4 µM (inactive); in the assay with CCRF-CEM, > 100 µM (inactive); with OVCAR-8, 1.45 µM (inactive); in the assay on HCT-116 it was 32.9 µM (inactive); in the assay on Hs-578T it was 2.14 µM (inactive); in the assay on RXF 393, 32.8 µM (inactive). In addition, the GI50 with NCI-H226 is 81.8 µM (inactive); in the assay with SK-MEL-2 it was 86.3 µM (inactive); in the assay on M14, 28.2 µM (inactive); with CAKI-1, 21.6 µM (inactive); in the assay on SK-MEL-5, 19.5 µM (inactive); in the assay on LOX IMVI it was 36.5 µM (inactive). The GI50 with PC-3 is 47.1 µM (inactive); in the assay with A498, > 100 µM (inactive); with ACHN it was 50.2 µM (inactive); in the assay with SW-620 it was > 100 µM (inactive); in the assay on IGROV-1 it was 13.7 µM (inactive); with SNB-75, 0.0441 µM (active). Moreover, the GI50 in the assay on NCI-H522 was 27.8 µM (inactive); in the assay with SN12C it was 67.5 µM (inactive).

`O=c1c2cccnc2[nH]c2ccc3scnc3c12`: the GI50 in the assay on SF-295 is > 10 µM (inactive); with CCRF-CEM, 5.27 µM (inactive); in the assay with OVCAR-8, > 10 µM (inactive); in the assay with HCT-116 it was 3.3 µM (inactive); in the assay with Hs-578T, > 10 µM (inactive); in the assay on RXF 393 it was 3.11 µM (inactive). Also, the GI50 in the assay on NCI-H226 is 5.97 µM (inactive); in the assay on SK-MEL-2 it was > 10 µM (inactive); in the assay with M14 it was 8.07 µM (inactive); in the assay on CAKI-1, > 10 µM (inactive); in the assay with SK-MEL-5 it was 7.01 µM (inactive); in the assay with LOX IMVI it was 3.36 µM (inactive). In addition, the GI50 in the assay with PC-3 is > 10 µM (inactive); in the assay with A498, 7.62 µM (inactive); with ACHN, 1.87 µM (inactive); in the assay on SW-620, > 10 µM (inactive); in the assay with IGROV-1, 4.81 µM (inactive); in the assay with SNB-75 it was 6.31 µM (inactive). Moreover, the GI50 is > 10 µM (inactive) in the assay on NCI-H522 and 6.24 µM (inactive) with SN12C.

Take `CN(C)c1ccc(/C=C(\NC(=O)c2ccccc2)C(=O)Nc2cccc(C(=O)NCCCO)c2)cc1`: the GI50 in the assay on SF-295, in the assay on CCRF-CEM, in the assay with OVCAR-8, in the assay with HCT-116, with Hs-578T and with RXF 393 was > 100 µM (inactive) each time. The GI50 in the assay on NCI-H226, in the assay on SK-MEL-2, with M14, with CAKI-1, in the assay on SK-MEL-5 and in the assay with LOX IMVI was > 100 µM (inactive) throughout. Moreover, the GI50 with PC-3, in the assay with A498, with ACHN, in the assay on SW-620, in the assay with IGROV-1 and with SNB-75 was > 100 µM (inactive) throughout. The GI50 in the assay on NCI-H522 and in the assay with SN12C was > 100 µM (inactive) throughout.

In the case of `C[C@]12CC[C@@H]3c4ccc(OC(=O)c5ccccc5)cc4CC[C@H]3[C@@H]1CCC2OC(=O)c1cccc2c(=O)c3ccccc3[nH]c12` (stereo not given in full), the GI50 in the assay with SF-295 is 18.2 µM (inactive); in the assay on CCRF-CEM it was 24.7 µM (inactive); in the assay with OVCAR-8, 18.3 µM (inactive); in the assay on HCT-116, 16.4 µM (inactive); in the assay with Hs-578T, 18.1 µM (inactive); in the assay on RXF 393 it was 14.4 µM (inactive). Further, the GI50 in the assay on NCI-H226 is 17.9 µM (inactive); in the assay with SK-MEL-2, 14.1 µM (inactive); in the assay on M14, 17.1 µM (inactive); with CAKI-1, 27 µM (inactive); with SK-MEL-5 it was 24.1 µM (inactive); with LOX IMVI, 16.3 µM (inactive). Besides, the GI50 in the assay on PC-3 is 13.4 µM (inactive); with A498, 26 µM (inactive); in the assay on ACHN it was 22.3 µM (inactive); with SW-620, 12.1 µM (inactive); in the assay on IGROV-1, 16.5 µM (inactive); in the assay with SNB-75, 23 µM (inactive). In addition, the GI50 in the assay with NCI-H522 was 23.3 µM (inactive); with SN12C, 14.4 µM (inactive).

With `C[N+]1([O-])C2CCC1CC(OC(=O)C(CO)c1ccccc1)C2` (stereo not given), the GI50 with SF-295, in the assay with CCRF-CEM, in the assay on OVCAR-8, in the assay with HCT-116, in the assay on Hs-578T and with RXF 393 was > 100 µM (inactive) in each case. Besides, the GI50 in the assay with NCI-H226, in the assay on SK-MEL-2, in the assay with M14, in the assay with CAKI-1, with SK-MEL-5 and in the assay on LOX IMVI was > 100 µM (inactive) in each case. The GI50 with PC-3, with A498, in the assay on ACHN, in the assay on SW-620, in the assay with IGROV-1 and in the assay on SNB-75 was > 100 µM (inactive) each time. For the same compound, the GI50 in the assay with NCI-H522 was > 100 µM (inactive); with SN12C, > 81.7 µM (inactive).

`Cc1cc2c(cc1C)[n+]([O-])c(C(=O)/C=C/c1ccccc1[N+](=O)[O-])c(C)[n+]2[O-]`: the GI50 in the assay with SF-295 was 36.3 µM (inactive); in the assay on CCRF-CEM, > 100 µM (inactive); in the assay with OVCAR-8 it was 61.5 µM (inactive); in the assay on HCT-116, 70.8 µM (inactive); in the assay with Hs-578T, 39.3 µM (inactive); in the assay on RXF 393 it was 37.4 µM (inactive). The GI50 with NCI-H226 is 67.5 µM (inactive); with SK-MEL-2 it was 41 µM (inactive); in the assay on M14, 74.6 µM (inactive); with CAKI-1, 47.2 µM (inactive); in the assay with SK-MEL-5 it was > 100 µM (inactive); with LOX IMVI, 71.1 µM (inactive). The GI50 with PC-3 was > 100 µM (inactive); with A498, 61.2 µM (inactive); in the assay with ACHN it was 46.3 µM (inactive); in the assay with SW-620, > 100 µM (inactive); in the assay with IGROV-1 it was > 80 µM (inactive); with SNB-75 it was 11.1 µM (inactive). Besides, the GI50 in the assay with NCI-H522 was 28.6 µM (inactive); with SN12C it was 69 µM (inactive).

With `COC(=O)C1=C(OC(=O)/C(=C/c2ccccc2)c2ccccc2)C(C(=O)OC)[C@@]2(O)[C@@H](C(=O)OC)[C@H](C)C[C@@H]1[C@@H]2C(=O)OC` (stereo not given in full), the GI50 with SF-295 is 69.7 µM (inactive); with CCRF-CEM, > 100 µM (inactive); in the assay on OVCAR-8 it was > 100 µM (inactive); with HCT-116, > 100 µM (inactive); in the assay with Hs-578T, > 100 µM (inactive); in the assay on RXF 393, 66.2 µM (inactive). Moreover, the GI50 in the assay on NCI-H226, in the assay on SK-MEL-2, in the assay on M14, in the assay on CAKI-1, in the assay with SK-MEL-5 and with LOX IMVI was > 100 µM (inactive) throughout. The GI50 with PC-3, with A498, with ACHN, in the assay on SW-620, with IGROV-1 and in the assay on SNB-75 was > 100 µM (inactive) throughout. Further, the values for the GI50 in the assay on NCI-H522 and with SN12C were 45.4 µM (inactive) and > 100 µM (inactive), respectively.

Regarding `Cc1nc2cccc([N+](=O)[O-])c2n1CCCN(C)C`, the GI50 in the assay on SF-295, in the assay on CCRF-CEM, with OVCAR-8, with HCT-116, in the assay on Hs-578T and with RXF 393 was > 100 µM (inactive) in each case. Besides, the GI50 was > 100 µM (inactive) with NCI-H226; > 100 µM (inactive) in the assay on SK-MEL-2; 22.6 µM (inactive) with M14; > 100 µM (inactive) in the assay with CAKI-1; > 100 µM (inactive) in the assay on SK-MEL-5; > 100 µM (inactive) in the assay with LOX IMVI. Also, the GI50 with PC-3, in the assay with A498, in the assay with ACHN, in the assay on SW-620, in the assay with IGROV-1 and in the assay with SNB-75 was > 100 µM (inactive) throughout. In addition, the GI50 in the assay with NCI-H522 and in the assay with SN12C was > 100 µM (inactive) each time.

The values above are taken from ChEMBL document CHEMBL1201862, “PubChem BioAssay data set” (2004).
